Literature values as cited in patent US11331358B2, “Pharmaceutical composition and method of manufacturing” (CURE PHARMACEUTICAL HOLDING CORP., priority 2014, dated 2022).
Values after ≈ are worked out from the molar mass of the structure shown. Like-named read-outs stand apart in the source and are kept apart here.

Conditions: for Solubility in alcohols, lipids and organic solvents: solvents as named in the value; for Solubility in alcohols, lipids and organic solvents / Solubility in alkaline solutions: qualitative; for Solubility in alkaline solutions: alkaline solutions / alkalai
[1] = qualitative (insol. / sp. sol. / sol)

Compound	Solubility in alcohols, lipids and organic solvents	Solubility in water [1]	Solubility in alkaline solutions	Solubility in water (23° C.)
CC12CCC(CC1)C(C)(C)O2 [1,8-cineole]	sol. alcohols, organic solvents (ethers, halocarbons)	insol.	–	–
CCCCCc1cc(O)c2c(c1)OC(C)(CCC=C(C)C)C=C2 (stereo not shown) [cannabichromene (CBC), cannabichromene]	sol. pentane	insol.	–	–
CCCCCc1cc2c(c(O)c1C(=O)O)C=CC(C)(CCC=C(C)C)O2 (stereo not shown) [cannabichromenic acid (CBCA), cannabichromenic acid]	sol. alcohols	sol	sol	–
CCCCCc1cc(O)c2c(c1)OC1(C)CCC3C1C2C3(C)C (stereo not shown) [cannabicyclol (CBL), cannabicyclol]	sol. pentane	insol.	–	–
CCCCCc1cc2c(c(O)c1C(=O)O)C1C3C(CCC3(C)O2)C1(C)C (stereo not shown) [cannabicyclolic acid (CBLA), cannabicyclolic acid]	sol. alcohols	sol	sol	–
CCCCCc1cc(O)c(C/C=C(\C)CCC=C(C)C)c(O)c1 [cannabigerol (CBG), cannabigerol]	sol. pentane	insol.	–	–
CCCCCc1cc(O)c(C/C=C(\C)CCC=C(C)C)c(O)c1C(=O)O [cannabigerolic acid (CBGA), cannabigerolic acid]	sol. alcohols	sol	sol	–
CCCCCc1cc(O)c2c(c1)OC(C)(C)c1ccc(C)cc1-2 [cannabinol (CBN), cannabinol]	sol. MeOH, EtOH, lipids, non-polar organic solvents	insol.	–	–
CCCCCc1cc2c(c(O)c1C(=O)O)-c1cc(C)ccc1C(C)(C)O2 [cannabinolic acid (CBNA), cannabinolic acid]	sol. alcohols	sol	sol	–
COc1cc(-c2cc(=O)c3c(O)c(C/C=C(\C)CCC=C(C)C)c(O)cc3o2)ccc1O [cannaflavin A]	sol. alcohols, ethers, halocarbons	insol.	sol.	–
COc1cc(-c2cc(=O)c3c(O)c(CC=C(C)C)c(O)cc3o2)ccc1O [cannaflavin B]	sol. alcohols, ethers, halocarbons	insol.	sol.	–
Cc1ccc(C(C)C)cc1O [carvacrol]	sol. alcohols, organic solvents (ethers, halocarbons)	sp. sol.	–	–
C=C(C)C1CC=C(C)C(=O)C1 (stereo not shown) [carvone]	sol. alcohols, organic solvents (ethers, halocarbons)	insol.	–	–
C=C(C)C1CCC2(C)OC2C1 (stereo not shown) [limonene oxide]	sol. alcohols, organic solvents (ethers, halocarbons)	insol.	–	–
C=C(C)C1CC=C(C)CC1 (stereo not shown) [limonene]	sol. alcohols, organic solvents (ethers, halocarbons), hydrocarbons	insol.	–	–
Cc1ccc(C(C)C)cc1 [p-cymene]	sol. alcohols, organic solvents (ethers, halocarbons), hydrocarbons	insol.	–	–
C[C@@H]1CCC2(OC2(C)C)C(=O)C1 (stereo partly shown) [pulegone-1,2epoxide]	sol. alcohols, organic solvents (ethers, halocarbons)	insol.	–	–
CC(C)=C1CC[C@@H](C)CC1=O [pulegone]	sol. alcohols, organic solvents (ethers, halocarbons)	insol.	–	–
CC1=CCC(O)(C(C)C)CC1 (stereo not shown) [terpinen-4-ol]	sol. alcohols, organic solvents (ethers, halocarbons)	insol.	–	–
C=C(C)C1CC=C(C)CC1c1c(O)cc(CCCCC)cc1O (stereo not shown) [Δ(8)-tetrahydrocannabidiol (Δ(8)-CBD), Δ(8)-tetrahydrocannabidiol]	sol. pentane	insol.	–	–
C=C(C)C1CC=C(C)CC1c1c(O)cc(CCCCC)c(C(=O)O)c1O (stereo not shown) [Δ(8)-tetrahydrocannabidiolic acid]	sol. alcohols	sol	sol	–
CCCCCc1cc(O)c2c(c1)OC(C)(C)[C@@H]1CC=C(C)CC21 (stereo partly shown) [Δ(8)-tetrahydrocannabinol (Δ(8)-THC), Δ(8)-tetrahydrocannabinol]	sol. MeOH, EtOH sol. lipids sol. non-polar organic solvents	insol.	–	–
CCCCCc1cc2c(c(O)c1C(=O)O)C1CC(C)=CC[C@H]1C(C)(C)O2 (stereo partly shown) [Δ(8)-tetrahydrocannabinolic acid]	sol. alcohols	sol	sol	–
CCCc1cc(O)c2c(c1)OC(C)(C)[C@@H]1CCC(C)=CC21 (stereo partly shown) [Δ(9)- tetrahydrocannabivarin (Δ(9)-THV), Δ(9)-tetrahydrocannabivarin]	sol. alcohols	sol	sol	–
CCCCCc1cc(O)c2c(c1)OC(C)(C)[C@@H]1CCC(C)=CC21 (stereo partly shown) [Δ(9)-tetrahydrocannabinol (Δ(9)-THC), Δ(9)-tetrahydrocannabinol, reference compound]	sol. MeOH, EtOH sol. lipids sol. non-polar organic solvents	–	–	2.8 µg/mL (≈ 8.9 µM)
CCCCCc1cc2c(c(O)c1C(=O)O)C1C=C(C)CC[C@H]1C(C)(C)O2 (stereo partly shown) [Δ(9)-tetrahydrocannabinolic acid]	sol. alcohols	sol	sol	–
C=C1CCC2OC2(C)CC[C@H]2[C@H]1CC2(C)C (stereo partly drawn) [β-caryophyllene epoxide]	sol. alcohols, organic solvents (ethers, halocarbons)	insol.	–	–
C=CC(=C)CCC=C(C)C [β-myrcene]	–	insol.	–	–
fenchone	sol. alcohols, organic solvents (ethers, halocarbons)	insol.	–	–
